From US20080206219A1, “Novel Indications for Transforming Growth Factor-Beta Regulators” (THE REGENCTS OF THE UNIVERSITY OF CALIFORNIA, priority 2003, published 2008)

B1: VEGFA164: VEGF164 (Chemicon), agent known to induce vascular leakage via VEGFR2 (protein)
chain: APTTEGEQKSHEVIKFMDVYQRSYCRPIETLVDIFQEYPDEIEYIFKPSCVPLMRCAGCCNDEALECVPTSESNITMQIMRIKPHQSQHIGEMSFLQHSRCECRPKKDRTKPENHCEPCSERRKHLFVQDPQTCKCSCKNTDSRCKARQLELNERTCRCDKPRR

How the values were obtained:
Format in all cases: in vivo
[1] = tested on: Collα1(I)+/+ and Collα1(I)r/r mice; assay: Miles assay: Evans blue leakage in ears after mustard oil challenge; details: for Evans blue staining of ears following MO exposure: 5% mustard oil in mineral oil
Procedure: Evans blue (EB) dye (30 mg/kg in 100 μl PBS; Sigma-Aldrich) was injected into the tail vein of 7- to 8-week-old mice. In some experiments, after 1-min, 30 μl of 5% mustard oil (Phenyl Isothiocyanate, 98%, Sigma-Aldrich) diluted in mineral oil (Sigma-Aldrich) was applied to the dorsal and ventral surfaces of the ear; the application process was repeated 15 minutes later. Isoflurane anesthesized mice were photographed 30 minutes after injection of EB dye. Anesthesized mice were then cardiac perfused, ears removed, blotted dry and weighed. EB dye was extracted from ears in 1 ml of formamide overnight to 48-hrs at 60° C. and measured spectrophotometrically at 610 nm in a SpectraMax 340™ (Molecular Devices). Data are expressed as mean±SEM. Comparisons of the amounts of dye extravasation were evaluated by Mann-Whitney statistical test with p values less than 0.05 considered significant. In some experiments, 5-min prior to the infusion of EB dye, shaved 5-to 7-week old mice were injected (10 μl) intradermally with one of the following agents at the concentrations shown (VEGF120, R&D Systems; VEGF164, Chemicon; histamine, Calbiochem; serotonin, Sigma-Aldrich) and the appearance of a blue spot monitored for 30 minutes at which time mice were euthanized, cardiac perfused, photographed and the area of skin surrounding the site of injection excised (˜5 mm^2), photographed and EB dye extracted as above. […]
The vascular physiology in a mouse model of human Sc, e.g., Collα1(I)^r/r mice, was studied to determine whether an altered balance between collagen synthesis, accumulation and/or degradation was a rate-limiting factor for efficient vascular physiology prior to histopathologic appearance of Sc disease. The ears of Collα1(I)^r/r versus littermate control (Collα1(I)^+/+) mice were treated with vehicle alone (mineral oil; FIG. 1A) or mustard oil (MO; 5% in mineral oil: right ear), an inflammatory agent that induces plasma leakage, vasodilation of capillaries and inflammation in the skin (FIG. 1A). Evans blue dye (30 mg/kg in 100 μl PBS; Sigma Chemical Co., St. Louis, Mo., USA) was injected into the tail vein of the mice. After 1 minute, 5% mustard oil (Phenyl Isothiocyanate, 98%, Sigma) diluted in mineral oil (Sigma) was applied to the dorsal and ventral surfaces of the ear with a cotton swab; the application process was repeated 15 minutes later. […] Isoflurane anesthesized mice were photographed 30 minutes after injection of Evans blue dye. Anesthesized mice were then cardiac perfused, ears removed, blotted dry, and weighed. The Evans blue dye was extracted from the ears with 1 ml of formamide overnight at 60° C. and measured spectrophotometrically at 610 nm in a SpectraMax 340™ (Molecular Devices). Data are expressed as mean±SEM. Comparisons of the amounts of dye extravasation were evaluated by the Fisher's t test with p values less than 0.05 considered significant.
Vascular permeability (VP) responses in control and Collα1(I)^r/r mice treated with a broad spectrum synthetic metalloproteinase inhibitor (MPI), e.g., GM6001 were examined. GM6001 (N-[(2R)-2(hydroxyamidocarbonylmethyl)-4-methylpantanoyl]-L-tryptophan ethylamide), a broad, class-specific metalloproteinase inhibitor (Chemicon, Temecula Calif.), was administered daily i.p. at 100 mg/kg body weight as a 20 mg/ml slurry in 4% carboxymethylcellulose in 0.9% PBS daily for 3-days. Controls were treated with a daily injection of 4% carboxymethylcellulose in PBS. The animals were then subject to cutaneous challenge with MO and qualitative and quantitative assessment of Evans blue dye leakage into vascular stroma (FIG. 5A).

[2] = tested on: control and Collα1(I)r/r mice; assay: Fluorescent angiography of whole mounted ears after mustard oil
[3] = tested on: control and Collα1(I)r/r mice; assay: Modified Miles assay: intradermal injection of permeability-inducing agents; details: for Evans blue leakage response after intradermal injection: Collα1(I)r/r mice versus control mice, all concentrations tested; for leakage of Evans blue dye into stroma after intradermal injection: control mice, increasing concentrations
Procedure: Evans blue (EB) dye (30 mg/kg in 100 μl PBS; Sigma-Aldrich) was injected into the tail vein of 7- to 8-week-old mice. In some experiments, after 1-min, 30 μl of 5% mustard oil (Phenyl Isothiocyanate, 98%, Sigma-Aldrich) diluted in mineral oil (Sigma-Aldrich) was applied to the dorsal and ventral surfaces of the ear; the application process was repeated 15 minutes later. Isoflurane anesthesized mice were photographed 30 minutes after injection of EB dye. Anesthesized mice were then cardiac perfused, ears removed, blotted dry and weighed. EB dye was extracted from ears in 1 ml of formamide overnight to 48-hrs at 60° C. and measured spectrophotometrically at 610 nm in a SpectraMax 340™ (Molecular Devices). Data are expressed as mean±SEM. Comparisons of the amounts of dye extravasation were evaluated by Mann-Whitney statistical test with p values less than 0.05 considered significant. In some experiments, 5-min prior to the infusion of EB dye, shaved 5-to 7-week old mice were injected (10 μl) intradermally with one of the following agents at the concentrations shown (VEGF120, R&D Systems; VEGF164, Chemicon; histamine, Calbiochem; serotonin, Sigma-Aldrich) and the appearance of a blue spot monitored for 30 minutes at which time mice were euthanized, cardiac perfused, photographed and the area of skin surrounding the site of injection excised (˜5 mm^2), photographed and EB dye extracted as above.
The vascular leakage in control and Collα1(I)^r/r mice following intradermal injection of other agents known to induce vascular leakage, e.g., VEGFA120, VEGFA164 and serotonin (versus vehicle alone), by interacting with distinct cell surface receptors, e.g., VEGF receptor-2 (VEGFR2) and serotonin receptors, respectively (FIG. 3A) were assessed. 5 min prior to the infusion of Evans blue dye, shaved 5-to 7-week old mice were injected (10 μl) intradermally with VEGF120 (R&D Systems) VEGF164 (Chemicon; histamine, Calbiochem) serotonin (Sigma) TIMP-1 (Oncogene Research Products, San Diego Calif.) and the appearance of a blue spot monitored for 30 minutes at which time mice were euthanized, cardiac perfused, photographed and the area of skin surrounding the site of injection excised (˜5 mm^2), photographed and Evans blue dye extracted as above.

VEGFR2 = molecular target: T1, VEGFR2 (Mus musculus, UniProt P35918); assay: VEGFR2 phosphorylation, IP-western of tissue lysates after intradermal VEGF164; details: control and Collα1(I)r/r mice; VEGF164 10 ng i.d.
T1 construct: tissue lysates were subjected to immunoprecipitation with anti-VEGFR2 antibodies; from tissue; host or cells: mouse skin after intradermal VEGF164 or BSA
T1 sequence (P35918 20-1345): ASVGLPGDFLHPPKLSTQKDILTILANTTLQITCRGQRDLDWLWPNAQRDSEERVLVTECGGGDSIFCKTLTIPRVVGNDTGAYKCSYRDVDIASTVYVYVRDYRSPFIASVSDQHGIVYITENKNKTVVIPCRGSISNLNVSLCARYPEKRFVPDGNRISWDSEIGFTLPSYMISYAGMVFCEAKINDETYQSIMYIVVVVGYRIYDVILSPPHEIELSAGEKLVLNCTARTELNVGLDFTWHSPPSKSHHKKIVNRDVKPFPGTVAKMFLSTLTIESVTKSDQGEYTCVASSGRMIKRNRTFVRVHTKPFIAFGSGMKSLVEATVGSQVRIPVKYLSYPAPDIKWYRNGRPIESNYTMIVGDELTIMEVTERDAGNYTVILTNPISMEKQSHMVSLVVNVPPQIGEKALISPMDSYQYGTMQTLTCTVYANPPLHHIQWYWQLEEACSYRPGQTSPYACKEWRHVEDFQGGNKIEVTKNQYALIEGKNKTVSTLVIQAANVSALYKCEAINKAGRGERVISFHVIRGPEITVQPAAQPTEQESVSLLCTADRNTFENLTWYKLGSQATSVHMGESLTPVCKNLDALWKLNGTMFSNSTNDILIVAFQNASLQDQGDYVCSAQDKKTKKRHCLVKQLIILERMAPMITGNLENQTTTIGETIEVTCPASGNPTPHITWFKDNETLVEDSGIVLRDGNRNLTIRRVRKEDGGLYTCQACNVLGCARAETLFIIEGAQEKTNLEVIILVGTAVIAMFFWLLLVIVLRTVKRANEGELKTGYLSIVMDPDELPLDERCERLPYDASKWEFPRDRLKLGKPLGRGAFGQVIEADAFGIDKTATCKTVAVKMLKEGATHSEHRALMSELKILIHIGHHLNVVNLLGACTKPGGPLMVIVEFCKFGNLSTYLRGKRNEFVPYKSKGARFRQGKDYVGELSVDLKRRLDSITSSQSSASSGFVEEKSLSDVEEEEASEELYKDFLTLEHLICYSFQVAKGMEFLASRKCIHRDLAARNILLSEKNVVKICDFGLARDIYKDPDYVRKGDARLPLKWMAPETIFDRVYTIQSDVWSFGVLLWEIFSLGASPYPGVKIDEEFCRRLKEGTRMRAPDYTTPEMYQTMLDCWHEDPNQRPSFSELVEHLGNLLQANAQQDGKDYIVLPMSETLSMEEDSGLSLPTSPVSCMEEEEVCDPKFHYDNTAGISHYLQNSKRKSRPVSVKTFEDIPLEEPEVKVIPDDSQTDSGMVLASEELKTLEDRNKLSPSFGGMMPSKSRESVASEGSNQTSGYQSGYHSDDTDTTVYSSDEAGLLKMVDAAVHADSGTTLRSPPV
Procedure: VEGFR2: Tissue pieces (5 mm^2) from animals were collected from ears or following shaving of back skin or following injection (i.d.) of 10 μl 10 ng VEGF164 or 0.1% BSA in PBS. Tissues were pulverized in liquid N2 followed by lysis in ice-cold buffer containing 20 mM Tris, pH 7.6, 150 mM NaCl, 1 mM EDTA, 50 mM NaF, 1% triton X-100, 0.5% Na-deoxycholate, 0.1% SDS, 2 mM Na2VO4, 10 μg/ml aprotinin, 1 mM phenylmethylsulfonylfluoride and centrifuged at 10,000 rpm for 30-min at 4° C. The supernatants were recentrifuged at 10,000 rpm for 30-min at 4° C. Lysates were then incubated in a slurry of heparin-Sepharose CL-6B (Pharmacia) and incubated overnight rocking at 4C, centrifugation and equilibrated to 150 mM NaCl. Protein was dialyzed against PBS and quantified using the BioRad protein assay system (BioRad). Before immunoprecipitation, BSA was added to the pre-cleared lysates to 0.5%. Equal amounts of protein (1 mg) from lysates were used for immunopreciptations and Western blotting. […]
Following intradermal injection of VEGF164 (10 ng), tissue lysates were subjected to immunoprecipitation with anti-VEGFR2 antibodies, followed by SDS-PAGE electrophoreses of immune complexes and western blot analysis with anti phospho-tyrosine and anti-VEGFR2 antibodies (FIG. 3B). […] Protein was dialyzed against PBS and quantified using the BioRad protein assay system (BioRad, Hercules, Calif.). […]

Molecule | amount of Evans blue leaked in response to MO, lower than in control animals ([1]; Collα1(I)r/r mice versus controls, p=0.0002) [%] | Evans blue staining of ears following MO exposure ([1]; Collα1(I)r/r mice) | Evans blue staining of ears following MO exposure ([1]; littermate control mice) | total vascular area after MO versus vehicle ([2]; Collα1(I)r/r mice) | vasodilation of macrovasculature (vessel diameter) after MO ([2]; Collα1(I)r/r mice) | vasodilation of macrovasculature (vessel diameter) after MO ([2]; control mice) | total vascular area after MO versus vehicle ([2]; control mice, p<0.04) | Evans blue leakage response after intradermal injection [3] | leakage of Evans blue dye into stroma after intradermal injection [3] | phosphorylation of VEGFR2 following exposure to VEGF (VEGFR2)
S=C=Nc1ccccc1 [MO, Phenyl Isothiocyanate] | ~50 | remained pale with only a modest hint of blue | moderately blue | unchanged | not observed | increased vasodilation of macrovasculature | significant increase in total vascular area |  |  | 
NCCc1c[nH]c2ccc(O)cc12 [serotonin] |  |  |  |  |  |  |  | significantly inhibited | significant leakage | 
B1 |  |  |  |  |  |  |  | significantly inhibited | significant leakage | similarly increased levels of phosphorylation
